System: growth hormone (GH) release
Test: In vivo GH release in pentobarbital anesthetized rats (serum GH by RIA)
Set-up: species or system immature female Sprague-Dawley rats
Settings: Table 4, control GH 181 ± 69
Protocol: Immature female Sprague-Dawley rats were obtained from the Charles River Laboratories (Wilmington, Mass.). After arrival they were housed at 25° C. with a 14:10 hour light:dark cycle. Water and Purina rat chow were available ad libitum. Pups were kept with their mothers until 21 days of age.
Twenty-six day old rats, six rats per treatment group, were anesthetized interperitoneally with 50 mg/Kg of pentobarbital 20 minutes prior to i. v. treatment with peptide. Normal saline with 0.1% gelatin was the vehicle for intravenous (i. v.) injections of the peptides. The anesthetized rats, weighing 55-65 grams, were injected i. v. with the quantity of growth hormone releasing compounds indicated in Tables 3 and 4. Injection was made as a 0.2 mL solution into the jugular vein.
All animals were sacrificed by guillotine 10 minutes after the final test injection (see Tables 3 and 4). Trunk blood for the determination of blood GH levels was collected following decapitation. After allowing the blood to clot, it was centrifuged and the serum was separated from the clot. […]
The mixed reagents are then typically incubated at room temperature (about 25° C.) for about 24 hours prior to addition of a second antibody (e.g., goat or rabbit anti-monkey gamma globulin serum) which binds to and causes precipitation of the complexed growth hormone antiserum. Precipitated contents of the RIA tubes are then analyzed for the number of counts in a specified period of time in a gamma scintillation counter. […] GH levels of unknowns are then determined by reference to the standard curve.
Serum GH was measured by RIA with reagents provided by the National Hormone and Pituitary Program.
Serum levels in Tables 3 and 4 are recorded in ng/mL in terms of the rat GH standard of 0.61 International Units/mg (IU/mg). Data is recorded as the mean +/- standard error of the mean (SEM). […]

“His--DCys(SMe)--Ala--Trp--DPhe--Lys--NH2” was tested, and the “GH Released” value (total dose 1.0 μg i.v.) was 193 ± 28 ng/mL, the “GH Released” value (total dose 3.0 μg i.v.) was 180 ± 34 ng/mL and the “GH Released” value (total dose .3 μg i.v.) was 178 ± 28 ng/mL.

— patent US5486505A, “Polypeptide compounds having growth hormone releasing activity” (Polygen Holding Corporation, priority 1992, dated 1996)
